Measured values: patent US9062071B2, “Substituted piperidines as HDM2 inhibitors” (Merck Sharp & Dohme Corp, priority 2011, dated 2015)

Molecular target: HDM2 protein (Homo sapiens, UniProt Q00987)
Experiment: fluorescence polarization screening assay (FP IC50)
Type: binding
Details: class symbols
Procedure: The compounds were evaluated to determine activity at the HDM2 protein by known methods such as the fluorescence polarization screening assay that measures the inhibitory concentration that achieves 50% of maximal activity (FP IC50) and the dissociation constant for inhibitor binding (FP Ki). [Zhang et al., J. Analytical Biochemistry 331: 138-146 (2004)].

Chain of HDM2 protein (Q00987 whole entry): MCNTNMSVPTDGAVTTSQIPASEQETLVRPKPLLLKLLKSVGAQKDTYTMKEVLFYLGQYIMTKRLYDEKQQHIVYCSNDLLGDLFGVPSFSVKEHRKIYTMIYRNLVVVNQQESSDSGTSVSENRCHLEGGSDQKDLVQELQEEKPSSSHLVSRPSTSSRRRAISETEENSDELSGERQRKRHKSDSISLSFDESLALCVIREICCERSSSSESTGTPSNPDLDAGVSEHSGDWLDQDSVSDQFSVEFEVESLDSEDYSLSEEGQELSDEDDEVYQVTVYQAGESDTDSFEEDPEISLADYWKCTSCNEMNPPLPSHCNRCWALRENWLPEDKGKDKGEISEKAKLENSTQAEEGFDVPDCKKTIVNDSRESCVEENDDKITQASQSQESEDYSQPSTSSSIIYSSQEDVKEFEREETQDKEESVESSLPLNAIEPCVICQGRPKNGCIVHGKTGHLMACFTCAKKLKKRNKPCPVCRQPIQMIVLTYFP

Row | Structure (SMILES) | IC50 [nM]
1 | CCC[C@H]1N(C(=O)c2ncccc2C(F)(F)F)CCC[C@@]1(Oc1csc(C(F)(F)F)c1)C(=O)N1Cc2ccc(F)cc2C[C@H]1CN(C)C(=O)C(F)F [Compound A159, 2,2-difluoro-N-{[(3S)-6-fluoro-2-{[(2R,3S)-2-propyl-1-{[3-(trifluoromethyl)pyridin-2-yl]carbonyl}-3-{[5-(trifluoromethyl)thiophen-3-yl]oxy}piperidin-3-yl]carbonyl}-1,2,3,4-tetrahydroisoquinolin-3-yl]methyl}-N-methylacetamide] | 101 to 20000
2 | CCC[C@H]1N(C(=O)c2ncccc2C(F)(F)F)CCC[C@@]1(Oc1csc(C(F)(F)F)c1)C(=O)N1Cc2ccc(F)cc2C[C@H]1C(=O)N1CCN(C)CC1 [Compound A160, (3S)-6-fluoro-3-[(4-methylpiperazin-1-yl)carbonyl]-2-{[(2R,3S)-2-propyl-1-{[3-(trifluoromethyl)pyridin-2-yl]carbonyl}-3-{[5-(trifluoromethyl)thiophen-3-yl]oxy}piperidin-3-yl]carbonyl}-1,2,3,4-tetrahydroisoquinoline] | 101 to 20000
3 | CCC[C@H]1N(C(=O)c2ncccc2C(F)(F)F)CCC[C@@]1(Oc1csc(C(F)(F)F)c1)C(=O)N1Cc2ccc(Cl)cc2C[C@@H]1C[C@H](COC)C(=O)O [Compound A161, (2R)-3-[(3S)-6-chloro-2-{[(2R,3S)-2-propyl-1-{[3-(trifluoromethyl)pyridin-2-yl]carbonyl}-3-{[5-(trifluoromethyl)thiophen-3-yl]oxy}piperidin-3-yl]carbonyl}-1,2,3,4-tetrahydroisoquinolin-3-yl]-2-(methoxymethyl) propanoic acid] | 1 to 100
4 | CCC[C@H]1N(C(=O)c2ncccc2C(F)(F)F)CCC[C@@]1(Oc1csc(C(F)(F)F)c1)C(=O)N1Cc2ccc(F)cc2C[C@H]1CN1CCC(O)CC1 [Compound A162, 1-{[(3S)-6-fluoro-2-{[(2R,3S)-2-propyl-1-{[3-(trifluoromethyl)pyridin-2-yl]carbonyl}-3-{[5-(trifluoromethyl)thiophen-3-yl]oxy}piperidin-3-yl]carbonyl}-1,2,3,4-tetrahydroisoquinolin-3-yl]methyl}piperidin-4-ol] | 101 to 20000
5 | CCC[C@H]1N(C(=O)c2ncccc2C(F)(F)F)CCC[C@@]1(Oc1csc(C(F)(F)F)c1)C(=O)N1Cc2ccc(F)cc2C[C@@H]1CCN(C)C(=O)[C@@H](C)O [Compound A163, (2R)-N-{2-[(3R)-6-fluoro-2-{[(2R,3S)-2-propyl-1-{[3-(trifluoromethyl)pyridin-2-yl]carbonyl}-3-{[5-(trifluoromethyl)thiophen-3-yl]oxy}piperidin-3-yl]carbonyl}-1,2,3,4-tetrahydroisoquinolin-3-yl]ethyl}-2-hydroxy-N-methylpropanamide] | 1 to 100
6 | CCC[C@H]1N(C(=O)c2ncccc2C(F)(F)F)CCC[C@@]1(Oc1csc(C(F)(F)F)c1)C(=O)N1Cc2ccc(Cl)cc2C[C@@H]1C[C@H](O)C(=O)O [Compound A164, (2S)-3-[(3R)-6-chloro-2-{[(2R,3S)-2-propyl-1-{[3-(trifluoromethyl)pyridin-2-yl]carbonyl}-3-{[5-(trifluoromethyl)thiophen-3-yl]oxy}piperidin-3-yl]carbonyl}-1,2,3,4-tetrahydroisoquinolin-3-yl]-2-hydroxypropanoic acid] | 1 to 100
7 | CCC[C@H]1N(C(=O)c2ncccc2C(F)(F)F)CCC[C@@]1(Oc1csc(C(F)(F)F)c1)C(=O)N1Cc2ccc(Cl)cc2C[C@@H]1C[C@H](CC)C(=O)O [Compound A165, (2S)-2-{[(3S)-6-chloro-2-{[(2R,3S)-2-propyl-1-{[3-(trifluoromethyl)pyridin-2-yl]carbonyl}-3-{[5-(trifluoromethyl)thiophen-3-yl]oxy}piperidin-3-yl]carbonyl}-1,2,3,4-tetrahydroisoquinolin-3-yl]methyl}butanoic acid] | 1 to 100
8 | CCC[C@H]1N(C(=O)c2ncccc2C(F)(F)F)CCC[C@@]1(Oc1csc(C(F)(F)F)c1)C(=O)N1Cc2ccc(Cl)cc2C[C@@H]1C(=O)NC1CCOCC1 [Compound A166, (3R)-6-chloro-2-{[(2R,3S)-2-propyl-1-{[3-(trifluoromethyl)pyridin-2-yl]carbonyl}-3-{[5-(trifluoromethyl)thiophen-3-yl]oxy}piperidin-3-yl]carbonyl}-N-(tetrahydro-2H-pyran-4-yl)-1,2,3,4-tetrahydroisoquinoline-3-carboxamide] | 1 to 100
9 | CCC[C@H]1N(C(=O)c2ncccc2C(F)(F)F)CCC[C@@]1(Oc1csc(C(F)(F)F)c1)C(=O)N1Cc2ccc(F)cc2C[C@H]1CCC(C)O (stereo partly drawn) [Compound A167, 4-[(3R)-6-fluoro-2-{[(2R,3S)-2-propyl-1-{[3-(trifluoromethyl)pyridin-2-yl]carbonyl}-3-{[5-(trifluoromethyl)thiophen-3-yl]oxy}piperidin-3-yl]carbonyl}-1,2,3,4-tetrahydroisoquinolin-3-yl]butan-2-ol] | 1 to 100
10 | CCC[C@H]1N(C(=O)c2ncccc2C(F)(F)F)CCC[C@@]1(Oc1csc(C(F)(F)F)c1)C(=O)N1Cc2ccc(Cl)cc2C[C@@H]1C(=O)N1CCC(O)CC1 [Compound A168, 1-{[(3R)-6-chloro-2-{[(2R,3S)-2-propyl-1-{[3-(trifluoromethyl)pyridin-2-yl]carbonyl}-3-{[5-(trifluoromethyl)thiophen-3-yl]oxy}piperidin-3-yl]carbonyl}-1,2,3,4-tetrahydroisoquinolin-3-yl]carbonyl}piperidin-4-ol] | 1 to 100
11 | CCC[C@H]1N(C(=O)c2ncccc2C(F)(F)F)CCC[C@@]1(Oc1csc(C(F)(F)F)c1)C(=O)N1Cc2ccc(Cl)cc2C[C@@H]1C(=O)N1CCC(OC)CC1 [Compound A169, (3R)-6-chloro-3-[(4-methoxypiperidin-1-yl)carbonyl]-2-{[(2R,3S)-2-propyl-1-{[3-(trifluoromethyl)pyridin-2-yl]carbonyl}-3-{[5-(trifluoromethyl)thiophen-3-yl]oxy}piperidin-3-yl]carbonyl}-1,2,3,4-tetrahydroisoquinoline] | 1 to 100
12 | CCC[C@H]1N(C(=O)c2ncccc2C(F)(F)F)CCC[C@@]1(Oc1csc(C(F)(F)F)c1)C(=O)N1Cc2ccc(Cl)cc2C[C@@H]1C(=O)N1CCC[C@@H](O)C1 [Compound A170, (3R)-1-{[(3R)-6-chloro-2-{[(2R,3S)-2-propyl-1-{[3-(trifluoromethyl)pyridin-2-yl]carbonyl}-3-{[5-(trifluoromethyl)thiophen-3-yl]oxy}piperidin-3-yl]carbonyl}-1,2,3,4-tetrahydroisoquinolin-3-yl]carbonyl}piperidin-3-ol] | 1 to 100
13 | CCC[C@H]1N(C(=O)c2ncccc2C(F)(F)F)CCC[C@@]1(Oc1csc(C(F)(F)F)c1)C(=O)N1Cc2sccc2CC1C(=O)O (stereo partly drawn) [Compound A171, 6-{[(2R,3S)-2-propyl-1-{[3-(trifluoromethyl)pyridin-2-yl]carbonyl}-3-{[5-(trifluoromethyl)thiophen-3-yl]oxy}piperidin-3-yl]carbonyl}-4,5,6,7-tetrahydrothieno[2,3-c]pyridine-5-carboxylic acid] | 101 to 20000
14 | CCC[C@H]1N(C(=O)c2ncccc2C(F)(F)F)CCC[C@@]1(Oc1csc(C(F)(F)F)c1)C(=O)N1Cc2sc(Cl)cc2CC1C(=O)O (stereo partly drawn) [Compound A172, 2-chloro-6-{[(2R,3S)-2-propyl-1-{[3-(trifluoromethyl)pyridin-2-yl]carbonyl}-3-{[5-(trifluoromethyl)thiophen-3-yl]oxy}piperidin-3-yl]carbonyl}-4,5,6,7-tetrahydrothieno[2,3-c]pyridine-5-carboxylic acid] | 1 to 100
15 | CCC[C@H]1N(C(=O)c2ncccc2C(F)(F)F)CCC[C@@]1(Oc1csc(C(F)(F)F)c1)C(=O)N1Cc2sccc2CC1C(=O)O (stereo partly drawn) [Compound A173, 6-{[(2R,3S)-2-propyl-1-{[3-(trifluoromethyl)pyridin-2-yl]carbonyl}-3-{[5-(trifluoromethyl)thiophen-3-yl]oxy}piperidin-3-yl]carbonyl}-4,5,6,7-tetrahydrothieno[2,3-c]pyridine-5-carboxylic acid] | 101 to 20000
16 | CCC[C@H]1N(C(=O)c2ncccc2C(F)(F)F)CCC[C@@]1(Oc1csc(C(F)(F)F)c1)C(=O)N1Cc2sc(Cl)cc2CC1C(=O)O (stereo partly drawn) [Compound A174, 2-chloro-6-{[(2R,3S)-2-propyl-1-{[3-(trifluoromethyl)pyridin-2-yl]carbonyl}-3-{[5-(trifluoromethyl)thiophen-3-yl]oxy}piperidin-3-yl]carbonyl}-4,5,6,7-tetrahydrothieno[2,3-c]pyridine-5-carboxylic acid] | 1 to 100
17 | CCC[C@H]1N(C(=O)c2ncccc2C(F)(F)F)CCC[C@@]1(Oc1csc(C(F)(F)F)c1)C(=O)N1Cc2sc(Br)cc2C[C@H]1C(=O)NS(C)(=O)=O [Compound A175, (5S)-2-bromo-N-(methylsulfonyl)-6-{[(2R,3S)-2-propyl-1-{[3-(trifluoromethyl)pyridin-2-yl]carbonyl}-3-{[5-(trifluoromethyl)thiophen-3-yl]oxy}piperidin-3-yl]carbonyl}-4,5,6,7-tetrahydrothieno[2,3-c]pyridine-5-carboxamide] | 1 to 100
18 | CCC[C@H]1N(C(=O)c2ncccc2C(F)(F)F)CCC[C@@]1(Oc1csc(C(F)(F)F)c1)C(=O)N1CCc2cc(Cl)ccc2C1CC(C)C (stereo partly drawn) [Compound A176, 6-chloro-1-(2-methylpropyl)-2-{[(2R,3S)-2-propyl-1-{[3-(trifluoromethyl)pyridin-2-yl]carbonyl}-3-{[5-(trifluoromethyl)thiophen-3-yl]oxy}piperidin-3-yl]carbonyl}-1,2,3,4-tetrahydroisoquinoline] | 101 to 20000
19 | CCC[C@H]1N(C(=O)c2ncccc2C(F)(F)F)CCC[C@@]1(Oc1csc(C(F)(F)F)c1)C(=O)N1CCc2cc(Cl)ccc2C1CC(C(=O)O)C(C)C (stereo partly drawn) [Compound A177, 2-[(6-chloro-2-{[(2R,3S)-2-propyl-1-{[3-(trifluoromethyl)pyridin-2-yl]carbonyl}-3-{[5-(trifluoromethyl)thiophen-3-yl]oxy}piperidin-3-yl]carbonyl}-1,2,3,4-tetrahydroisoquinolin-1-yl)methyl]-3-methylbutanoic acid] | 101 to 20000
